Experimental data published in patent US10640545B2 (THE GOVERNORS OF THE UNIVERSITY OF ALBERTA, priority 2017, dated 2020).
Entries after “also recorded” stand apart in the source; their conditions may differ. *1 amine or outer side, *2 acyl side, *3 side chain or, on linkers, in order; H or OH if unused. Where a SMILES comes first, the peptide text is derived from it. [ ]: non-standard residue; d: D form. The star is where a group is joined. Phe(4-Br) = N[C@@H](Cc1ccc(Br)cc1)C(=O)O; X1 = N=C(N)NCCCN(N[*:1])C(=O)[*:2]; Palmitoyl = CCCCCCCCCCCCCCCC(=O)*; αMeR = C[C@](N)(CCCNC(=N)N)C(=O)O; NMeL = CN[C@@H](CC(C)C)C(=O)O; pGlu = O=C1CC[C@@H](C(=O)O)N1; αMeL = CC(C)C[C@](C)(N)C(=O)O; Nle = CCCC[C@H](N)C(=O)O; Aib = CC(C)(N)C(=O)O

Legend:
[1] = target: T1, wild-type rat apelin receptor (Rattus norvegicus, UniProt Q9JHG3); assay: Radioligand binding, displacement of [125I]-pyr-1-apelin-13 on CHO cell membranes; conditions: for Ki: displacement of [125I]-pyr-1-apelin-13 (0.2 nM), CHO membranes, rat apelin receptor-EGFP, means ± SE, read-out: Affinity Ki; for weaker affinity compared to 1, by a factor: ratio of Ki to native 1; for receptor binding affinity (in words): rat apelin receptor
T1 construct: expressed in transfected cells
T1 sequence (Q9JHG3 1-377): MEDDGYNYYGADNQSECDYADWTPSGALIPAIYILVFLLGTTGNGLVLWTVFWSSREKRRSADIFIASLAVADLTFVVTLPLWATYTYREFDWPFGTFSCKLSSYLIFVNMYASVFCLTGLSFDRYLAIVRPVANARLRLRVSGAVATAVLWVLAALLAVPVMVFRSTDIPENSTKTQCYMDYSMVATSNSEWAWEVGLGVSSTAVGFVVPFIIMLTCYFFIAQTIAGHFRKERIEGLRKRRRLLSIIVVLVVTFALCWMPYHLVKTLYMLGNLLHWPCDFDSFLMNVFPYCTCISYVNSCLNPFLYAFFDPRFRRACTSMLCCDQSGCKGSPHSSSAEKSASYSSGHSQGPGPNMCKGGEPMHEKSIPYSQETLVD
Procedure: This experiment evaluated the ability of peptides of the present embodiments to bind to the wild-type rat apelin receptor, in order to examine the impact of synthetic modification within the critical RPRL motif of the apelin peptides.
Membrane preparations from CHO cells stably expressing the wild-type rat apelin receptor-EGFP were prepared as previously described (Gerbier et al., New Structural Insights Into The Apelin Receptor: Identification Of Key Residues For Apelin binding; FASEB J. 2015, 29, 314-322; Iturrioz et. al., Development Of Original Metabolically-Stable Apelin-17 Peptides With Diuretic And Cardiovascular Effects; FASEB J. 2017, 31, 687-700.) Crude membrane preparations (1 μg total mass of membranes/assay) were incubated for 3 h at 20° C. with 0.2 nM [^125I]-pyr-1-apelin-13 (monoiodinated on Lys^8 with Bolton-Hunter reagent, Perkin Elmer, Wellesley, Mass., USA) in binding buffer (50 mM HEPES, 5 mM MgCl2 1149 pH 7.5, BSA 1%) alone or in presence of the different compounds at various concentrations. The reaction was stopped by adding 4 mL of cold binding buffer, filtered on Whatman GF/C filters and washed with 5 mL of cold binding buffer. Radioactivity was then counted using a Wizard 1470 Wallac gamma counter (Perkin Elmer, Turku, Finland). Binding experiment data were analyzed with Graph Pad Prism.

in vitro = conditions: human, plasma
anesthetized mice = assay: Blood pressure assay in anesthetized mice; assay type: in vivo; conditions: 1.4 μM/kg body weight injected; for blood pressure lowering (hypotensive) effect: SBP, DBP, MABP
Procedure: Synthetic peptides 8-19 were tested for blood pressure lowering abilities in anesthetized mice. Apelin peptides were injected through […], monitoring blood pressure (BP) and heart rate (HR) over 60 minutes.
Mice were anaesthetized with 1.5% isoflurane/oxygen, and body temperature was monitored and maintained at 36° C. by a heating pad. The aorta was cannulated via the right carotid artery using a PV loop catheter (Model 1.2F from Scisense, Transonic) in order to continuously record arterial blood pressure and heart rate (LabScribe 2.0, Scisense). […] Results are reported as systolic blood pressure (SBP), diastolic blood pressure (DBP), mean arterial blood pressure (MABP) and heart rate (HR).
Apelin peptides 11, 56-59 as well as the KLKB1-cleavage fragments 54 and 55 were tested for blood pressure lowering abilities in anesthetized mice.
Mice were anesthetized with 1.5% isoflurane/oxygen, and body temperature was monitored and maintained at 36° C. by a heating pad. The aorta was cannulated via the right carotid artery using a PV loop catheter (model 1.2F from Scisense, Transonic) in order to continuously record arterial blood pressure and heart rate (LabScribe 2.0, Scisense). Compounds 11, and 54-59 or 55-59 (1.4 μM/kg body weight) or the same volume of saline was injected via the right jugular vein. Results are reported as systolic blood pressure (SBP), diastolic blood pressure (DBP), mean arterial blood pressure (MABP), and heart rate (HR) shown in FIGS. 15A-D.
Apelin peptides were delivered systemically via the right internal jugular vein while blood pressure (BP) and heart rate (HR) were continuously monitored in the aorta cannulated via the right carotid artery. All N-terminally extended apelin peptides, except 58, show pronounced and time-stable blood pressure lowering effects (FIGS. 15a-d). […] This correlates with the results obtained from the Ca^2+ mobilization assay.

Compound	Ki [1] [nM]	weaker affinity compared to 1, by a factor [1]	remaining at 1 h, 80 µM (in vitro) [%]	remaining at 0.5 h, 80 µM (in vitro) [%]	receptor binding affinity (in words) [1]	effect on heart rate (HR) (anesthetized mice)	blood pressure lowering (hypotensive) effect (anesthetized mice)
CCCC[C@H](NC(=O)[C@@H]1CCCN1C(=O)CNC(=O)[C@H](CCCCN)NC(=O)[C@H](Cc1c[nH]cn1)NC(=O)[C@H](CO)NC(=O)[C@](C)(CC(C)C)NC(=O)[C@H](CCCNC(=N)N)NC(=O)[C@@H]1CCCN1C(=O)[C@H](CCCNC(=N)N)NC(=O)[C@H](CCC(N)=O)NC(=O)[C@H](CCCNC(=N)N)NC(=O)[C@H](CCCNC(=N)N)NC(=O)[C@H](Cc1ccccc1)NC(=O)[C@@H](N)CCCCN)C(=O)NC(C)(C)C(=O)N[C@@H](Cc1ccc(Br)cc1)C(=O)O [Peptide 15] (H-KFRRQRPR[αMeL]SHKGP[Nle][Aib][Phe(4-Br)]-OH; N-terminus and C-terminus assumed)			48 ± 7	77 ± 4		had an impact on the heart rate	without inducing any vasoactive effects
CCCC[C@H](NC(=O)[C@@H]1CCCN1C(=O)CNC(=O)[C@H](CCCCN)NC(=O)[C@H](Cc1c[nH]cn1)NC(=O)[C@H](CO)NC(=O)[C@H](CC(C)C)NC(=O)[C@H](CCCNC(=N)N)NC(=O)[C@@H]1CCCN1C(=O)[C@H](CCCNC(=N)N)NC(=O)[C@H](CCC(N)=O)NC(=O)[C@@H](N)CCCNC(=N)N)C(=O)NC(C)(C)C(=O)N[C@@H](Cc1ccc(Br)cc1)C(=O)O [Peptide 54] (H-RQRPRLSHKGP[Nle][Aib][Phe(4-Br)]-OH; C-terminus assumed)							inactive or nearly so
CCCC[C@H](NC(=O)[C@@H]1CCCN1C(=O)CNC(=O)[C@H](CCCCN)NC(=O)[C@H](Cc1c[nH]cn1)NC(=O)[C@H](CO)NC(=O)[C@H](CC(C)C)N(C)C(=O)[C@H](CCCNC(=N)N)NC(=O)[C@@H]1CCCN1C(=O)[C@H](CCCNC(=N)N)NC(=O)[C@H](CCC(N)=O)NC(=O)[C@@H](N)CCCNC(=N)N)C(=O)NC(C)(C)C(=O)N[C@@H](Cc1ccc(Br)cc1)C(=O)O [Peptide 55, Arg-Gln-Arg-Pro-Arg-NMeLeu-Ser-His-Lys-Gly-Pro-Nle-Aib-paraBrPhe] (H-RQRPR[NMeL]SHKGP[Nle][Aib][Phe(4-Br)]-OH; C-terminus assumed)							inactive or nearly so
CCCCCCCCCCCCCCCC(=O)N[C@@H](CCCCN)C(=O)N[C@@H](Cc1ccccc1)C(=O)N[C@@H](CCCNC(=N)N)C(=O)N[C@@H](CCCNC(=N)N)C(=O)N[C@@H](CCC(N)=O)C(=O)N[C@@H](CCCNC(=N)N)C(=O)N1CCC[C@H]1C(=O)N[C@@H](CCCNC(=N)N)C(=O)N[C@@H](CC(C)C)C(=O)N[C@@H](CO)C(=O)N[C@@H](Cc1c[nH]cn1)C(=O)N[C@@H](CCCCN)C(=O)NCC(=O)N1CCC[C@H]1C(=O)N[C@@H](CCCC)C(=O)NC(C)(C)C(=O)N[C@@H](Cc1ccc(Br)cc1)C(=O)O [Peptide 56] (Palmitoyl-KFRRQRPRLSHKGP[Nle][Aib][Phe(4-Br)]-OH; C-terminus assumed)							more potent than apelin-17 (2) and apelin-17A2 (5)

The next lines start with results.

Ki [1] [nM]	weaker affinity compared to 1, by a factor [1]	remaining at 1 h, 80 µM (in vitro) [%]	remaining at 0.5 h, 80 µM (in vitro) [%]	receptor binding affinity (in words) [1]	Compound	effect on heart rate (HR) (anesthetized mice)	blood pressure lowering (hypotensive) effect (anesthetized mice)
0.56 ± 0.033	2	62 ± 6			CCCC[C@H](NC(=O)[C@@H]1CCCN1C(=O)CNC(=O)[C@H](CCCCN)NC(=O)[C@H](Cc1c[nH]cn1)NC(=O)[C@H](CO)NC(=O)[C@H](CC(C)C)NC(=O)[C@](C)(CCCNC(=N)N)NC(=O)[C@@H]1CCCN1C(=O)[C@H](CCCNC(=N)N)NC(=O)[C@@H]1CCC(=O)N1)C(=O)NC(C)(C)C(=O)N[C@@H](Cc1ccc(Br)cc1)C(=O)O [Peptide 12, pGlu-Arg-Pro-αMeArg-Leu-Ser-His-Lys-Gly-Pro-Nle-Aib-paraBrPhe] ([pGlu]RP[αMeR]LSHKGP[Nle][Aib][Phe(4-Br)]-OH; C-terminus assumed)		
1 ± 0.1	3	57 ± 1	83 ± 3		CCCC[C@H](NC(=O)[C@@H]1CCCN1C(=O)CNC(=O)[C@H](CCCCN)NC(=O)[C@H](Cc1c[nH]cn1)NC(=O)[C@H](CO)NC(=O)[C@H](CC(C)C)NC(=O)N(CCCNC(=N)N)NC(=O)[C@@H]1CCCN1C(=O)[C@H](CCCNC(=N)N)NC(=O)[C@@H]1CCC(=O)N1)C(=O)NC(C)(C)C(=O)N[C@@H](Cc1ccc(Br)cc1)C(=O)O [Peptide 16, pGlu-Arg-Pro-azaArg-Leu-Ser-His-Lys-Gly-Pro-Nle-Aib-paraBrPhe] ([pGlu]RP[X1]LSHKGP[Nle][Aib][Phe(4-Br)]-OH; C-terminus assumed)	significant and pronounced effect of increasing the murine HR; also recorded: had an impact on the heart rate	without inducing any vasoactive effects
0.12 ± 0.035		22 ± 1	32 ± 2	modest improvement in receptor binding	CCCC[C@H](NC(=O)[C@@H]1CCCN1C(=O)CNC(=O)[C@H](CCCCN)NC(=O)[C@H](Cc1c[nH]cn1)NC(=O)[C@H](CO)NC(=O)[C@@H](CC(C)C)NC(=O)[C@H](CCCNC(=N)N)NC(=O)[C@@H]1CCCN1C(=O)[C@H](CCCNC(=N)N)NC(=O)[C@@H]1CCC(=O)N1)C(=O)NC(C)(C)C(=O)N[C@@H](Cc1ccc(Br)cc1)C(=O)O [Peptide 8, pGlu-Arg-Pro-Arg-D-Leu-Ser-His-Lys-Gly-Pro-Nle-Aib-paraBrPhe] ([pGlu]RPR[dL]SHKGP[Nle][Aib][Phe(4-Br)]-OH; C-terminus assumed)		no ability to decrease blood pressure; also recorded: inactivity
0.17 ± 0.05		38 ± 3	45 ± 6	modest improvement in receptor binding	CCCC[C@H](NC(=O)[C@@H]1CCCN1C(=O)CNC(=O)[C@H](CCCCN)NC(=O)[C@H](Cc1c[nH]cn1)NC(=O)[C@H](CO)NC(=O)[C@](C)(CC(C)C)NC(=O)[C@H](CCCNC(=N)N)NC(=O)[C@@H]1CCCN1C(=O)[C@H](CCCNC(=N)N)NC(=O)[C@@H]1CCC(=O)N1)C(=O)NC(C)(C)C(=O)N[C@@H](Cc1ccc(Br)cc1)C(=O)O [Peptide 14, pGlu-Arg-Pro-Arg-αMeLeu-Ser-His-Lys-Gly-Pro-Nle-Aib-paraBrPhe] ([pGlu]RPR[αMeL]SHKGP[Nle][Aib][Phe(4-Br)]-OH; C-terminus assumed)	significant and pronounced effect of increasing the murine HR; also recorded: had an impact on the heart rate	without inducing any vasoactive effects
0.1 ± 0.048		59 ± 6	77 ± 3	modest improvement in receptor binding	CCCC[C@H](NC(=O)[C@@H]1CCCN1C(=O)CNC(=O)[C@H](CCCCN)NC(=O)[C@H](Cc1c[nH]cn1)NC(=O)[C@H](CO)NC(=O)[C@H](CC(C)C)N(C)C(=O)[C@H](CCCNC(=N)N)NC(=O)[C@@H]1CCCN1C(=O)[C@H](CCCNC(=N)N)NC(=O)[C@@H]1CCC(=O)N1)C(=O)NC(C)(C)C(=O)N[C@@H](Cc1ccc(Br)cc1)C(=O)O [Peptide 10, pGlu-Arg-Pro-Arg-NMeLeu-Ser-His-Lys-Gly-Pro-Nle-Aib-paraBrPhe] ([pGlu]RPR[NMeL]SHKGP[Nle][Aib][Phe(4-Br)]-OH; C-terminus assumed)	significant and pronounced effect of increasing the murine HR; also recorded: had an impact on the heart rate	no ability to decrease blood pressure; also recorded: without inducing any vasoactive effects
